This is an account of results in patent US11969433B2, “Compositions and methods for muscle regeneration using prostaglandin E2” (The Board of Trustees of the Leland Stanford Junior …, priority 2016, dated 2024).

Assay [1] concerns MuSCs. Nature of the assay: Young MuSC numbers after acute PGE2 treatment, hydrogel culture (hemocytometer count). The note with it: ONO-AE3-208 1 μM, PGE2 10 ng/ml, 24 hr. Format: cell-based, mouse. As for the experimental part: (§1) Following isolation, we resuspended MuSCs in myogenic cell culture medium containing DMEM/F10 (50:50), 15% FBS, 2.5 ng ml^−1 fibroblast growth factor-2 (FGF-2 also known as bFGF) and 1% penicillin-streptomycin. We seeded MuSC suspensions at a density of 500 cells per cm^2 surface area. We maintained cell cultures at 37° C. in 5% CO2 and changed medium daily. […]
(§2) To assay proliferation, we used three different assays (hemocytometer, VisionBlue, and EdU). […] For hemocytometer cell number count, we collected cells at indicated timepoints by incubation with 0.5% trypsin in PBS for 5 min at 37° C. and quantified them using a hemocytometer at least 3 times. Additionally, we used the VisionBlue Quick Cell Viability Fluorometric Assay Kit (BioVision, catalog #K303) as a readout for cell growth in culture. Briefly, we incubated MuSCs with 10% VisionBlue in culture medium for 3 h, and measured fluorescence intensity on a fluorescence plate reader (Infinite M1000 PRO, Tecan) at Ex=530-570 nm, Em=590-620 nm. […] We quantified EdU positive cells using the MetaMorph Image Analysis software (Molecular Devices). Data analyses were blinded, where researchers performing cell scoring were unaware of the treatment condition given to sample groups analyzed.

The next assay has as its system aged MuSCs. Nature of the assay: Aged MuSC numbers after acute 24 hr treatment, hydrogel culture. The assay is classed as cell-based, mouse. The following applies: 1-day pulse; PGE2 10 ng/ml or SW033291 1 μM; assayed day 7. As for the experimental part: as §1, §2
Assay [2] deals with hematopoietic, liver, and colon tissues. The note with it: delivery of 15-PGDH inhibitor; cited from earlier work.
Assay [3] relates to MuSCs. Nature of the assay: Quantitative RT-PCR of MuSC transcripts. Format: cell-based, mouse. The following applies: aged MuSCs, 1-day pulse. An excerpt: We isolated RNA from MuSCs using the RNeasy Micro Kit (Qiagen). For muscle samples, we snap froze the tissue in liquid nitrogen, homogenized the tissues using a mortar and pestle, followed by syringe and needle trituration, and then isolated RNA using Trizol (Invitrogen). We reverse-transcribed cDNA from total mRNA from each sample using the SensiFAST™ cDNA Synthesis Kit (Bioline). We subjected cDNA to RT-PCR using SYBR Green PCR Master Mix (Applied Biosystems) or TaqMan Assays (Applied Biosystems) in an ABI 7900HT Real-Time PCR System (Applied Biosystems). We cycled samples at 95° C. for 10 min and then 40 cycles at 95° C. for 15 s and 60° C. for 1 min. To quantify relative transcript levels, we used 2-ΔΔCt to compare treated and untreated samples and expressed the results relative to Gapdh. For SYBR Green qRT-PCR, we used the following primer sequences: Gapdh. forward 5′-[…]-3′ (SEQ ID NO: 1), reverse 5′-CCCTTTTGGCTCCACCCT-3′ (SEQ ID NO: 2); Hpgd, forward 5′-[…]-3′ (SEQ ID NO: 3), reverse 5′-[…]-3′ (SEQ ID NO: 4); Ptges, forward 5′-GCTGTCATCACAGGCCAGA-3′ (SEQ ID NO: 5), reverse 5′-[…]-3′ (SEQ ID NO: 6); Ptges2, forward 5′-[…]-3′ (SEQ ID NO: 7), reverse 5′-[…]-3′ (SEQ ID NO: 8); Ptger1, forward 5′ GTGGTGTCGTGCATCTGCT-3′ (SEQ ID NO: 9), reverse, 5′ […]-3′ (SEQ ID NO: 10), and Ptger2, forward 5′-[…]-3′ (SEQ ID NO: 11), reverse 5′-[…]-3′ (SEQ ID NO: 12). TaqMan Assays (Applied Biosystems) were used to quantify Pax7. Myogenin. Slco2a1 (PGT), Ptger3 and Ptger4 in samples according to the manufacturer instructions with the TaqMan Universal PCR Master Mix reagent kit (Applied Biosystems). Transcript levels were expressed relative to Gapdh levels. For SYBR Green qPCR, Gapdh qPCR was used to normalize input cDNA samples. For Taqman qPCR, multiplex qPCR enabled target signals (FAM) to be normalized individually by their internal Gapdh signals (VIC).

Assay [4] has as its system tibialis anterior (TA) muscle. Nature of the assay: Intramuscular dmPGE2 after cardiotoxin injury of TA, histology (PAX7, myofiber CSA). The assay is classed as in vivo, mouse. The method, then:
We used an injury model entailing intramuscular injection of 10 μl of notexin (10 μg ml^−1; Latoxan) or cardiotoxin (10 μM; Latoxan) into the TA muscle. For cryoinjury, an incision was made in the skin overlying the TA muscle and a copper probe, chilled in liquid nitrogen, was applied to the TA muscle for three 10 s intervals, allowing the muscle to thaw between each application of the cryoprobe. When indicated, 48 hr after injury either 16,16-Dimethyl Prostaglandin E2 (dmPGE2) (13 nmol, Tocris, catalog #4027) or vehicle control (PBS) was injected into the TA muscle. The contralateral TA was used as an internal control. We collected tissues 14 days post-injury for analysis.
We collected and prepared recipient TA muscle tissues for histology as previously described^5,6. We incubated transverse sections with anti-LAMININ (Millipore, clone A5, catalog #05-206, 1:200), and anti-PAX7 (Santa Cruz Biotechnology, catalog #sc-81648, 1:50) primary antibodies and then with AlexaFluor secondary Antibodies (Jackson ImmunoResearch Laboratories, 1:200). We counterstained nuclei with DAPI (Invitrogen). We acquired images with an AxioPlan2 epifluorescent microscope (Carl Zeiss Microimaging) with Plan NeoFluar 10×/0.30NA or 20×/0.75NA objectives (Carl Zeiss) and an ORCA-ER digital camera (Hamamatsu Photonics) controlled by the SlideBook (3i) software. The images were cropped using Adobe Photoshop with consistent contrast adjustments across all images from the same experiment. The image composites were generated using Adobe Illustrator. We analyzed the number of PAX7 positive cells using the MetaMorph Image Analysis software (Molecular Devices), and the fiber area using the Baxter Algorithms for Myofiber Analysis that identified the fibers and segmented the fibers in the image to analyze the area of each fiber. For PAX7 quantification we examined serial sections spanning a depth of at least 2 mm of the TA. For fiber area at least 10 fields of LAMININ-stained myofiber cross-sections encompassing over 400 myofibers were captured for each mouse as above. Data analyses were blinded. The researchers performing the imaging acquisition and scoring were unaware of treatment condition given to sample groups analyzed.

Assay [5] relates to gastrocnemius (GA) muscle. Nature of the assay: In vivo muscle force after downhill treadmill run, aged mice (Example 1). The arrangement: species or system mouse. The following applies: dmPGE2 daily 5 days in week 1, force at week 5. The method, then: Aged mice (18 mo.) were subjected to downhill treadmill run for 2 consecutive weeks. During week 1, mice ran daily for 5 days and rested on days 6 and 7. Two hours after each treadmill run during week 1, each (lateral and medial) gastrocnemius (GA) muscle from both legs of each mouse was injected with a dose of either PBS (vehicle control) or 13 nM dmPGE2 (experimental group). During week 2, mice were subjected to 5 days treadmill run only. The treadmill run was performed using the Exer3/6 (Columbus Instruments). Mice ran for 10 minutes on the treadmill at 20 degrees downhill, starting at a speed of 7 meters/min. After 3 min, the speed was increased by 1 meter/min to a final speed of 14 meter/min. […] Force measurements were on the GA muscles at week 5 based on a protocol published previously^5. […] Data were collected with a PCI-6251 acquisition card (National Instruments) and analyzed in Matlab. We calculated specific force values by normalizing the force measurements by the muscle physiological cross-sectional areas (PCSAs), which were similar between the control and the experimental PGE2 treated group (Table 2). PCSA (measured in mm^2) was calculated according to the following equation^12: PCSA (mm^2)=[mass (g)×Cos θ]÷[ρ(g/mm^3)×fiber length (mm)], where θ is pennation angle of the fiber and ρ is muscle density (0.001056 g/mm^3). […]

The test system of a further assay is endogenous MuSCs. Nature of the assay: Endogenous MuSCs by Pax7-luciferase BLI after cardiotoxin injury. The assay is classed as in vivo, mouse. The method, then: We performed bioluminescence imaging (BLI) using a Xenogen-100 system, as previously described^1,5,6. Briefly, we anesthetized mice using isofluorane inhalation and administered 120 μL D-luciferin (0.1 mmol kg^−1, reconstituted in PBS; Caliper LifeSciences) by intraperitoneal injection. We acquired BLI using a 60 s exposure at F-stop=1.0 at 5 minutes after luciferin injection. Digital images were recorded and analyzed using Living Image software (Caliper LifeSciences). We analyzed images with a consistent region-of-interest (ROI) placed over each hindlimb to calculate a bioluminescence signal. We calculated a bioluminescence signal in radiance (p s^−1 cm^−2 sr^−1) value of 10^4 to define an engraftment threshold. This radiance threshold of 10^4 is approximately equivalent to the total flux threshold in p/s reported previously. This BLI threshold corresponds to the histological detection of one or more GFP+ myofibers^1,5,6. We performed BLI imaging every week after transplantation.
For Pax7^CreERT2; Rosa26-LSL-Luc mice experiments, we treated mice with five consecutive daily intraperitoneal injections of tamoxifen to activate luciferase expression under the control of the Pax7 promoter. A week after the last tamoxifen injection, mice were subjected to intramuscular injection of 10 μl of cardiotoxin (10 μM; Latoxan), which we designated as day 0 of the assay. […]

In assay [6] the test system is MuSCs. Nature of the assay: MuSC transplantation into injured TA muscle, engraftment by bioluminescence imaging. Format: in vivo, mouse.
Another assay has as its system Tibialis anterior (TA). Nature of the assay: Muscle twitch force after injury and indomethacin injection. The assay is classed as in vivo, mouse. The note with it: day 14 post-injury, indomethacin into cardiotoxin-injured muscles.

Take `CC(C(=O)Nc1cc(C#N)ccc1CCCC(=O)O)c1ccc(F)c2ccccc12` (stereo not shown) [ONO-AE3-208]: the “proliferation induced by PGE2 in presence of EP4 antagonist” value in the assay with MuSCs [1] is reported as “blunted”.
For `CCCC[S+]([O-])c1sc2nc(-c3cccs3)cc(-c3ccccc3)c2c1N` (stereo not shown) [SW033291], in the assay with aged MuSCs, the “proliferation of aged MuSCs” value was “increase”. In assay [2], the “regeneration of hematopoietic, liver, and colon tissues” value is given as “enhance regeneration”. Moreover, in the assay on MuSCs [3], the “Pax7 expression in aged MuSCs” value is listed as “maintenance”.
Regarding `CCCCC(C)(C)[C@H](O)/C=C/[C@H]1[C@H](O)CC(=O)[C@@H]1C/C=C\CCCC(=O)O` [dmPGE2, 16,16-dimethyl prostaglandin E2], the myofiber sizes result in assay [4] (aged mice, fourteen days post-injury) is reported as “increase”. Also, the “increase in the number of endogenous MuSCs” value in assay [4] (aged mice, fourteen days post-injury, single dmPGE2 injection) was 24±2%. For the same compound, the “distribution of myofibers (cross-sectional area)” value in [4] (young mice, day 14 post injury) was “shifted toward larger sizes”. Moreover, the “increase in endogenous PAX7-expressing MuSCs” value in assay [4] (young mice, fourteen days post cardiotoxin injury, single dmPGE2 bolus) is given as 60+15%. For the same compound, the “effect on endogenous MuSCs in the absence of injury” value in assay [4] (young mice, no injury) is “no effect”. For the same compound, in [5], the specific tetanic force result is given as “significantly increased” and the specific twitch force result is given as “significantly increased”. In addition, the “endogenous MuSCs assayed by Pax7-luciferase BLI” value in the assay on endogenous MuSCs (dmPGE2 3 days after cardiotoxin injury) is given as “Increase”. Moreover, the “engraftment of aged MuSCs relative to controls” value in the assay with MuSCs [6] (aged MuSCs (250 cells) coinjected with dmPGE2) was “significantly enhanced”. For the same compound, the “engraftment of young MuSCs relative to controls” value with MuSCs [6] (freshly sorted young MuSCs (250 cells) coinjected with 13 nmol dmPGE2) is given as “significantly enhanced”.
Regarding `COc1ccc2c(c1)c(CC(=O)O)c(C)n2C(=O)c1ccc(Cl)cc1` [indomethacin], the “Twitch force compared to control group” value in the assay on Tibialis anterior (TA) is reported as “significant loss”. In the assay with endogenous MuSCs (indomethacin injected three days post-cardiotoxin injury), the “luciferase activity (muscle stem cell activation)” value is “significant decrease”.
